Patent US6613317B1, “Volatile attractants for diabrotica species” (priority 1988, dated 2003)
Marks after values point to notes of the source that are not given here.

Tests used:
D. barberi [1] = experiment: Sticky trap attraction in prairie habitat, Trelease Woods (Example 2); format: in vivo, Diabrotica barberi; conditions: 100 mg per trap, n = 4
Experimental: (§1) The candidate lures in all experiments were purchased commercially and exceeded 98% purity. The test chemicals were applied by capillary micropipettes to cotton dental wicks which were attached to the tops of 1.0 liter cylindrical paper cartons covered with TangleTrap™ (Tanglefoot Co., Grand Rapids, Mich.). The sticky trap techniques used were as described in Example 1. Cinnamyl alcohol and para-methoxycinnamaldehyde, which are solids, were dissolved in glass-distilled acetone prior to dosing the cotton wicks. […]. Control traps had untreated cotton wicks. Four replicates of treated and untreated traps were randomly positioned 10 meters apart on top of 1 m high posts along the border of a eight foot wide strip cut through the middle of a 4.05 ha relict prairie at Trelease Woods (ca. two miles northeast of Urbana, Ill.). The field consisted primarily of Andropogon gerardii Vitman (big bluestem) and a variety of composites. The tests were conducted in mid-August of two years and were timed to coincide with the presence of D. cristata and D. barberi adults in the flower heads of Canada thistle (Carduus arvensis Robson). In the second year, several new attractants of D. v. virgifera and D. barberi were tested in Trelease Woods and along the edge of a 0.8 ha field of hybrid corn located at the Pomology South Farms, Urbana, Ill. Attraction of Diabrotica species to the various lures was measured by the mean number of beetles caught after 24-h. On one date in late August of the first year, D. cristata and D. barberi were removed from the traps and sexed in the laboratory. The significance of treatments in all tests was determined by an analysis of variance and the individual means were separated by Duncan's multiple range test (Statistical Package for Social Science, Nie, et al., SPSS: statistical package for the social sciences, 2nd ed. McGraw-Hill, New York (1975). Data were logarithmically transformed for statistical analysis and the means and standard deviations are presented for the untransformed data.

D. cristata = experiment: as above; format: in vivo, Diabrotica cristata; conditions: 100 mg per trap, n = 4
Experimental: as §1

D. v. virgifera [2] = experiment: as above; format: in vivo, Diabrotica virgifera virgifera; conditions: 100 mg per trap, n = 4
Experimental: as §1

D. u. howardi [3] = experiment: as above; format: in vivo, Diabrotica undecimpunctata howardi; conditions: 100 mg per trap, n = 4
Experimental: as §1

D. barberi [4] = experiment: Sticky trap attraction along hybrid corn, Pomology South Farms (Example 2); format: in vivo, Diabrotica barberi; conditions: 100 mg per trap, n = 4
Experimental: (§2) The candidate lures in all experiments were purchased commercially and exceeded 98% purity. The test chemicals were applied by capillary micropipettes to cotton dental wicks which were attached to the tops of 1.0 liter cylindrical paper cartons covered with TangleTrap™ (Tanglefoot Co., Grand Rapids, Mich.). The sticky trap techniques used were as described in Example 1. Cinnamyl alcohol and para-methoxycinnamaldehyde, which are solids, were dissolved in glass-distilled acetone prior to dosing the cotton wicks. All treatments were applied at a dosage of 100 mg per trap. 1,2,4-trimethoxybenzene, indole, and trans-cinnamaldehyde were mixed in a ratio of 1:1:1, by weight, immediately prior to dosing the cotton wicks. Control traps had untreated cotton wicks. Four replicates of treated and untreated traps were randomly positioned 10 meters apart on top of 1 m high posts along the border of a eight foot wide strip cut through the middle of a 4.05 ha relict prairie at Trelease Woods (ca. two miles northeast of Urbana, Ill.). The field consisted primarily of Andropogon gerardii Vitman (big bluestem) and a variety of composites. The tests were conducted in mid-August of two years and were timed to coincide with the presence of D. cristata and D. barberi adults in the flower heads of Canada thistle (Carduus arvensis Robson). In the second year, several new attractants of D. v. virgifera and D. barberi were tested in Trelease Woods and along the edge of a 0.8 ha field of hybrid corn located at the Pomology South Farms, Urbana, Ill. Attraction of Diabrotica species to the various lures was measured by the mean number of beetles caught after 24-h. On one date in late August of the first year, D. cristata and D. barberi were removed from the traps and sexed in the laboratory. The significance of treatments in all tests was determined by an analysis of variance and the individual means were separated by Duncan's multiple range test (Statistical Package for Social Science, Nie, et al., SPSS: statistical package for the social sciences, 2nd ed. McGraw-Hill, New York (1975). Data were logarithmically transformed for statistical analysis and the means and standard deviations are presented for the untransformed data.

D. v. virgifera [5] = experiment: as above; format: in vivo, Diabrotica virgifera virgifera; conditions: 100 mg per trap, n = 4
Experimental: as §2

D. u. howardi [6] = experiment: as above; format: in vivo, Diabrotica undecimpunctata howardi; conditions: 100 mg per trap, n = 4
Experimental: as §2

NCR = experiment: Limit of response rating of squash blossom volatiles on sticky traps (Example 5); format: in vivo, Diabrotica barberi; conditions: 24 hour; four replicate traps; 0.01 mg to 200 mg
Experimental: (§3) Over 40 individual volatile chemicals have been isolated from Cucurbita maxima blossoms and circa 25 of these have been unequivocally identified (Andersen, J. F., J. Agric. Food Chem., 35:60-62 (1987): Andersen, J. F. and Metcalf, R. L., J. Chem. Ecol., 12:687-699 (1986)). The major odor components were evaluated as potential attractants for adult Diabrotica species using cylindrical sticky traps baited with dental cotton wicks (Metcalf, R. L., and Lampman, R. L., Paper submitted to J. Econ. Entomol., (1988)) containing from 0.01 mg to 200 mg of volatile compound.

SCR = experiment: as above; format: in vivo, Diabrotica undecimpunctata howardi; conditions: 24 hour; four replicate traps; 0.01 mg to 200 mg
Experimental: as §3

WCR = experiment: as above; format: in vivo, Diabrotica virgifera virgifera; conditions: 24 hour; for Attractant Rating WCR (by limit of response): four replicate traps, 0.01 mg to 200 mg
Experimental: as §3

rootworm beetles = experiment: Small-plot comparison of insecticides in TEX×PEP dry ground bait; format: in vivo; conditions: 0.01-0.1% (wt/wt); 1- to 3.3-m2 plots of corn and cucurbits
Experimental: Bait applications to evaluate various insecticides. The relative effectiveness of a variety of insecticides incorporated at 0.01-0.1% (wt/wt) in TEX×PEP dry ground bait was compared. The following insecticides were tested: bendiocarb, carbaryl, carbofuran, methomyl, oxamyl; dimethoate, malathion, isofenphos, phospholan, and mephospholan; and permethrin, cypermethrin, fenvalerate, and flucythrinate. […] The overall greater effectiveness of the carbamates in these small-plot tests is attributed to their rapid kill and lack of repellent effect. The pyrethroids were somewhat repellent to the rootworm beetles.

[7] = system: western corn rootworm (WCR) adults; experiment: Sticky trap attraction in corn, estragole analogues (Example 3); format: in vivo, Diabrotica virgifera virgifera; conditions: 100 mg per trap, n = 4
Experimental: (§4) Test chemicals were applied by capillary micropipettes to cotton dental wicks that were attached to tops of 1.0 liter cylindrical paper cartons covered with TangleTrap™, Grand Rapids, Mich. The trapping techniques used were as previously described in Example 1. Cinnamyl alcohol, 4-methoxycinnamaldehyde, cinnamyl acetate, and 4-(4′methoxyphenyl)-3-butene-2-one which are solids at ambient temperature were prepared as standard w/v solutions in acetone prior to dosing the cotton wicks. All treatments were made at a dosage of 100 mg or 100 μL of attractant per trap. Control traps had untreated wicks. Four replicates of treated and untreated traps were positioned randomly 10 meters apart on top of 1 m high posts along the edges of 25-50 ha. fields of hybrid corn (Zea mays), infested with adult NCR, SCR, and WCR beetles. Several experiments detailed in the Tables were made in a 0.4 ha plot of sweet corn (Illini X-tra Sweet).
(§5) Attraction of Diabrotica species adults of the sticky traps was measured by the mean number of beetles caught after 1 day (ca. 24 hours) exposure. The significance of the treatments was determined by analysis of variance and the individual means were separated by Duncan's multiple range test (Statistical Package for the Social Sciences, Nie, et al., 2nd. ed. McGraw-Hill, New York (1975). The data was logarithmically transformed for statistical analysis. Means and standard deviations are presented for the untransformed data. Significance levels were set at P=0.05 for all statistical analyses.

[8] = system: southern corn rootworm (SCR) adults; experiment: as above; format: in vivo, Diabrotica undecimpunctata howardi; conditions: 100 mg per trap, n = 4
Experimental: as §4, §5

[9] = system: northern corn rootworm (NCR) adults; experiment: as above; format: in vivo, Diabrotica barberi; conditions: 100 mg per trap, n = 4
Experimental: as §4, §5

[10] = system: northern corn rootworm (NCR); experiment: Sticky trap attraction in corn, phenylethanol analogues (Example 6); format: in vivo, Diabrotica barberi; conditions: Table 17; 100 mg per trap; four replicates; 24 hour
Experimental: as §4, with “chemicals (purchased from Aldrich Chemical Co.; Milwaukee, Wis.)” for “chemicals”, “Unless otherwise indicated, all” for “Cinnamyl alcohol, 4-methoxycinnamaldehyde, cinnamyl acetate, and 4-(4′methoxyphenyl)-3-butene-2-one which are solids at ambient temperature were prepared as standard w/v solutions in acetone prior to dosing the cotton wicks. All”
as §5

[11] = system: western corn rootworm (WCR); experiment: as above; format: in vivo, Diabrotica virgifera virgifera; conditions: Table 17; 100 mg per trap; four replicates; 24 hour
Experimental: as §4, with “chemicals (purchased from Aldrich Chemical Co.; Milwaukee, Wis.)” for “chemicals”, “Unless otherwise indicated, all” for “Cinnamyl alcohol, 4-methoxycinnamaldehyde, cinnamyl acetate, and 4-(4′methoxyphenyl)-3-butene-2-one which are solids at ambient temperature were prepared as standard w/v solutions in acetone prior to dosing the cotton wicks. All”
as §5

[12] = system: western corn rootworm (WCR) adults; conditions: per sticky trap; cited from earlier work

CC(=O)/C=C/C1=C(C)CCCC1(C)C [β-ionone]
Mean number of D. barberi per day (±standard deviation) (D. barberi [1]; August 11, 1987): 0.3 ± 0.5^ab per day | Mean number of D. barberi per day (±standard deviation) (D. barberi [1]; August 14, 1987): 0.3 ± 0.5^a per day | Mean number of D. cristata per day (±standard deviation) (D. cristata; August 11, 1987): 17.3 ± 8.7^b per day | Mean number of D. cristata per day (±standard deviation) (D. cristata; August 14, 1987): 5.3 ± 2.2^b per day | Mean number of D. v. virgifera per day (±standard deviation) (D. v. virgifera [2]; August 11, 1987): 4.0 ± 0.8^b per day | Mean number of D. v. virgifera per day (±standard deviation) (D. v. virgifera [2]; August 14, 1987): 2.3 ± 1.3^b per day | Mean number of D. u. howardi per day (±standard deviation) (D. u. howardi [3]; August 11, 1987): 0.3 ± 0.5^a per day | Mean number of D. u. howardi per day (±standard deviation) (D. u. howardi [3]; August 14, 1987): 0.0^a per day | Mean number of D. barberi per stick trap per day (±standard deviation) in corn (D. barberi [4]; August 7): 0.5 ± 0.7^a per stick trap per day | Mean number of D. barberi per stick trap per day (±standard deviation) in corn (D. barberi [4]; August 18): 1.5 ± 1.0^a per stick trap per day | Mean number of D. v. virgifera per stick trap per day (±standard deviation) in corn (D. v. virgifera [5]; August 7): 263.5 ± 94.6^cd per stick trap per day | Mean number of D. v. virgifera per stick trap per day (±standard deviation) in corn (D. v. virgifera [5]; August 18): 89.0 ± 18.2^b per stick trap per day | Mean number of D. u. howardi per stick trap per day (±standard deviation) in corn (D. u. howardi [6]; August 7): 1.8 ± 2.4^a per stick trap per day | Mean number of D. u. howardi per stick trap per day (±standard deviation) in corn (D. u. howardi [6]; August 18): 0.5 ± 0.7^a per stick trap per day | Attractant Rating NCR (by limit of response) (NCR): 0 (200) | Attractant Rating SCR (by limit of response) (SCR): 0 (200) | Attractant Rating WCR (by limit of response) (WCR): +4 (1-3) | LR for WCR (WCR; sticky traps): 3 mg

CCOP(=S)(NC(C)C)Oc1ccccc1C(=O)OC(C)C (centres unmarked) [Isofenphos, isofenphos]
relative effectiveness of insecticides in TEX×PEP dry ground bait (rootworm beetles): most effective of the organophosphorus insecticides

CNC(=O)Oc1cccc2c1OC(C)(C)C2 [carbofuran]
relative effectiveness of insecticides in TEX×PEP dry ground bait (rootworm beetles): more effective than the pyrethroids

O=CC=Cc1ccccc1 [XII, cinnamaldehyde]
Mean number of WCR adults per sticky trap (±standard deviation) after 24 hours ([7]; August 4 second year): 32.2 ± 8.5^b per sticky trap | Mean number of WCR per sticky trap after 24 hours ([7]; August 5 (Table 10)): 44.5 ± 25.5^d per sticky trap | Mean number of WCR adults per sticky trap (±standard deviation) after 24 hours ([7]; August 5 first year): 4.0 ± 1.8^b per sticky trap | Mean number of WCR (±standard deviation) per sticky trap after 24 hours ([7]; August 7 (Table 11)): 61.5 ± 15.6^b per sticky trap | Mean number of WCR adults per sticky trap (±standard deviation) after 24 hours ([7]; September 11): 1.3 ± 1.3^a per sticky trap | Mean number of SCR adults per sticky trap (±standard deviation) after 24 hours ([8]; August 4 second year): 135.5 ± 29.3^d per sticky trap | Mean number of SCR per sticky trap after 24 hours ([8]; August 5 (Table 10)): 67.5 ± 23.1^d per sticky trap | Mean number of SCR adults per sticky trap (±standard deviation) after 24 hours ([8]; August 5 first year): 431.2 ± 120.3^d per sticky trap | Mean number of SCR (±standard deviation) per sticky trap after 24 hours ([8]; August 7 (Table 11)): 63.5 ± 25.7^c per sticky trap | Mean number of SCR adults per sticky trap (±standard deviation) after 24 hours ([8]; September 11): 24.0 ± 10.5^c per sticky trap | Mean number of NCR per sticky trap after 24 hours ([9]; August 5 (Table 10)): 1.2 ± 1.3^a per sticky trap | Mean number of NCR (±standard deviation) per sticky trap after 24 hours ([9]; August 7 (Table 11)): 0.3 ± 0.5^a per sticky trap | Attractant Rating NCR (by limit of response) (NCR): 0 (200) | Attractant Rating SCR (by limit of response) (SCR): +4 (1-3) | Attractant Rating WCR (by limit of response) (WCR): +3 (3-10) | Mean number of NCR per trap (± standard deviation) [10]: 15.5 ± 3.8b per trap | Mean number of WCR per trap (± standard deviation), column WCW [11]: 56.0 ± 34.6b per trap

CCC(=O)OC(C)CCCCCC(C)CC (centres unmarked) [8-methyl-2-decylpropanoate]
amount per sticky trap that attracted male WCR [12]: 5 µg

CNC(=O)ON=C(C)SC [methomyl]
relative effectiveness of insecticides in TEX×PEP dry ground bait (rootworm beetles): more effective than the pyrethroids

CNC(=O)Oc1cccc2ccccc12 [carbaryl]
relative effectiveness of insecticides in TEX×PEP dry ground bait (rootworm beetles): more effective than the pyrethroids

CNC(=O)Oc1cccc2c1OC(C)(C)O2 [bendicarb, bendiocarb]
relative effectiveness of insecticides in TEX×PEP dry ground bait (rootworm beetles): more effective than the pyrethroids
